Test results published in ChEMBL document CHEMBL4765493, “Berberine Directly Targets the NEK7 Protein to Block the NEK7-NLRP3 Interaction and Exert Anti-inflammatory Activity” (J Med Chem, 2021).
Values belong to the molecule of their own block, whether it stands above or below them. Active and inactive are the calls of the source. The calls are words filed in the database; no cut-off is given here.

Columns and labels:
[1] = Inhibition of LPS + nigericin-induced IL-1beta secretion in PMA-differentiated human THP-1 cells at 20 uM incubated for 24 hrs by ELISA; assay type: functional
[2] = target: T1, Serine/threonine-protein phosphatase PGAM5, mitochondrial (Homo sapiens) (UniProt Q96HS1); experiment: Binding affinity to […] in PMA-differentiated human THP-1 cells incubated for 2 hrs by SDS-PAGE and LC-MS/MS analysis; assay type: cell-based
T1 sequence (whole entry): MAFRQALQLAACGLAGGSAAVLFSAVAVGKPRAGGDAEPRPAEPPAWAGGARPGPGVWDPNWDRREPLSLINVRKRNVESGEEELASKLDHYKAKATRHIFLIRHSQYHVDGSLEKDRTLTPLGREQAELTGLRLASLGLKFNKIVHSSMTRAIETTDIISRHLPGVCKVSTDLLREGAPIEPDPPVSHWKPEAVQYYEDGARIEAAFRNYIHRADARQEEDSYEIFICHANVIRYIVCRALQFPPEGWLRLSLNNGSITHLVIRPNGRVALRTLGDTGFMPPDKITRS

[3] = target: DIMT1 dimethyladenosine transferase 1 (Homo sapiens) (UniProt Q9UNQ2); experiment: Binding affinity to DIM1 in PMA-differentiated human THP-1 cells incubated for 2 hrs by SDS-PAGE and LC-MS/MS analysis
[4] = target: T2, Serine/threonine-protein kinase Nek7 (Homo sapiens, UniProt Q8TDX7); experiment: Binding affinity to NEK7 in PMA-differentiated human THP-1 cells incubated for 2 hrs by SDS-PAGE and LC-MS/MS analysis; assay type: cell-based
Target sequence in this assay (Q8TDX7 whole entry, looked up): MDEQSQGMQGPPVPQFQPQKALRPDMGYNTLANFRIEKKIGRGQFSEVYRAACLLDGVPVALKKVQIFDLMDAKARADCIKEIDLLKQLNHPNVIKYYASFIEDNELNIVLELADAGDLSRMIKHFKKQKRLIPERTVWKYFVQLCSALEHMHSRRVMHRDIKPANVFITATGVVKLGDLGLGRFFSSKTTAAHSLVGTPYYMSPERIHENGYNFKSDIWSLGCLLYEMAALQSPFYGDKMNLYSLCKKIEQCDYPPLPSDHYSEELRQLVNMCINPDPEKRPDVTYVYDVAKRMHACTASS

[5] = target: T3, Uridine-cytidine kinase 2 (Homo sapiens) (UniProt Q9BZX2); experiment: Binding affinity to UCK2 in PMA-differentiated human THP-1 cells incubated for 2 hrs by SDS-PAGE and LC-MS/MS analysis; assay type: cell-based
T3 sequence (whole entry): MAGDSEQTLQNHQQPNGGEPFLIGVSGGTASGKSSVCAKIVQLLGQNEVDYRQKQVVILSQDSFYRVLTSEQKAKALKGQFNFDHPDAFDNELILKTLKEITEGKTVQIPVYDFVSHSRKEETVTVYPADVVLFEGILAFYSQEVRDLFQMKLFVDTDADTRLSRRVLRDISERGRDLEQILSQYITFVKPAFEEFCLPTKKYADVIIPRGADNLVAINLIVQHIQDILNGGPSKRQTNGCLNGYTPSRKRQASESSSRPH

[6] = target: 28S rRNA (cytosine-C(5))-methyltransferase (Homo sapiens) (UniProt Q96P11); experiment: Binding affinity to NSUN5 in PMA-differentiated human THP-1 cells incubated for 2 hrs by SDS-PAGE and LC-MS/MS analysis; assay type: cell-based
[7] = target: Nicotinamide/nicotinic acid mononucleotide adenylyltransferase 1 (Homo sapiens) (UniProt Q9HAN9); experiment: Binding affinity to NMNAT1 in PMA-differentiated human THP-1 cells incubated for 2 hrs by SDS-PAGE and LC-MS/MS analysis; assay type: cell-based
[8] = target: T2, Serine/threonine-protein kinase Nek7; experiment: Binding affinity to NEK7 in PMA-differentiated human THP-1 cells incubated for 2 hrs by immunoblot analysis; assay type: cell-based
Target sequence in this assay (Q8TDX7 whole entry, looked up): as the sequence (Q8TDX7 whole entry, looked up) above

[9] = target: T2, Serine/threonine-protein kinase Nek7; experiment: Binding affinity to human recombinant NEK7 incubated for 2 hrs in presence of BBR by pull down assay
Target sequence in this assay (Q8TDX7 whole entry, looked up): as the sequence (Q8TDX7 whole entry, looked up) above

[10] = target: T2, Serine/threonine-protein kinase Nek7; experiment: Binding affinity to human recombinant NEK7 incubated for 2 hrs by pull down assay relative to control; settings: THP-1
Target sequence in this assay (Q8TDX7 whole entry, looked up): as the sequence (Q8TDX7 whole entry, looked up) above

[11] = target: T2, Serine/threonine-protein kinase Nek7; experiment: Binding affinity to human recombinant NEK7 incubated for 2 hrs by pull down assay; settings: THP-1
Target sequence in this assay (Q8TDX7 whole entry, looked up): as the sequence (Q8TDX7 whole entry, looked up) above

BMDM [12] = experiment: Inhibition of LPS + nigericin-induced IL-1beta secretion in mouse BMDM at 2.5 to 20 uM pre-treatment for 4 hrs before LPS + nigericin by immunoblot analysis; assay type: functional, tissue-based; settings: dose 2.5-20 µM
BMDM [13] = experiment: Inhibition of LPS + nigericin-induced NLRP3 expression in mouse BMDM at 2.5 to 20 uM pre-treatment for 4 hrs before LPS + nigericin by immunoblot analysis; assay type: functional, tissue-based; settings: dose 2.5-20 µM
[14] = Toxicity in mouse BMDM cells assessed as induction of apoptosis by measuring cleaved caspase-9 levels up to 40 uM incubated for 24 hrs by immunoblot analysis; assay type: cell-based
THP-1 [15] = experiment: Inhibition of LPS + nigericin-induced pro-IL-beta expression in human THP-1 cells at 2.5 to 20 uM pre-treatment for 4 hrs before LPS + nigericin by immunoblot analysis; assay type: functional, cell-based; settings: dose 2.5-20 µM
THP-1 [16] = experiment: Inhibition of NEK7-NLRP3 interaction in human THP-1 cells incubated for 24 hrs by Co-IP assay; assay type: cell-based
Mus musculus [17] = experiment: Antiinflammatory activity in NEK7 wild type C57BL/6 mouse model assessed as reduction in lesion in heart in at 5 mg/kg, ip dosed three times every 12 hrs followed by LPS challenge by H and E staining; assay type: functional, organism-based
HEK293 [18] = experiment: Inhibition of NEK7-NLRP3 interaction (unknown origin) expressed in HEK293 cells incubated for 24 hrs by Co-IP assay; assay type: cell-based; settings: Homo sapiens
THP-1 [19] = experiment: Inhibition of LPS + nigericin-induced caspase-1 activation in human THP-1 cells pre-treatment for 4 hrs before LPS + nigericin by immunoblot analysis; assay type: functional, cell-based
Mus musculus [20] = experiment: Antiinflammatory activity in NEK7 wild type C57BL/6 mouse model assessed as reduction in lesion in spleen in at 5 mg/kg, ip dosed three times every 12 hrs followed by LPS challenge by H and E staining; assay type: functional, organism-based
[21] = Inhibition of LPS + nigericin-induced IL-1beta secretion in PMA-differentiated human THP-1 cells incubated for 1 to 24 hrs by Immunoblot analysis; assay type: functional, cell-based
[22] = Toxicity in mouse BMDM cells assessed as induction of apoptosis by measuring cleaved caspase-7 levels up to 40 uM incubated for 24 hrs by immunoblot analysis; assay type: cell-based
HEK293 [23] = experiment: Inhibition of NEK7-NLRP3 interaction (unknown origin) expressed in HEK293 cells at 10 uM incubated for 24 hrs by Co-IP assay; assay type: cell-based; settings: Homo sapiens
[24] = target: T2, Serine/threonine-protein kinase Nek7; experiment: Inhibition of purified recombinant human NEK7 incubated for 15 mins before ATP and substrate addition and further incubated for 40 mins by ADPGlo kinase assay
Target sequence in this assay (Q8TDX7 whole entry): as the sequence (Q8TDX7 whole entry, looked up) above

BMDM [25] = experiment: Inhibition of LPS + nigericin-induced caspase-1 activation in mouse BMDM at 2.5 to 20 uM pre-treatment for 4 hrs before LPS + nigericin by immunoblot analysis; assay type: functional, tissue-based; settings: dose 2.5-20 µM
THP-1 [26] = experiment: Inhibition of LPS + nigericin-induced IL-1beta secretion in human THP-1 cells pre-treatment for 4 hrs before LPS + nigericin by immunoblot analysis; assay type: functional, cell-based
HEK293 [27] = experiment: Inhibition of NEK7 R121A mutant-NLRP3 interaction (unknown origin) expressed in HEK293 cells at 10 uM incubated for 24 hrs by Co-IP assay; assay type: cell-based; settings: Homo sapiens
THP-1 [28] = experiment: Inhibition of LPS + nigericin-induced NLRP3 expression in human THP-1 cells at 2.5 to 20 uM pre-treatment for 4 hrs before LPS + nigericin by immunoblot analysis; assay type: functional, cell-based; settings: dose 2.5-20 µM
[29] = Toxicity in mouse BMDM cells assessed as induction of apoptosis by measuring cleaved caspase-3 levels up to 40 uM incubated for 24 hrs by immunoblot analysis; assay type: cell-based
THP-1 [30] = experiment: Inhibition of AIM2-induced IL-1beta activation in human THP-1 cells at 10 uM pre-treatment for 2 hrs before AIM2 addition; assay type: functional, cell-based
[31] = target: T2, Serine/threonine-protein kinase Nek7; experiment: Binding affinity to NEK7 in PMA-differentiated human THP-1 cells at 100 uM incubated for 8 hrs by streptavidin-bead enrichment and immunoblot assay; assay type: cell-based
Target sequence in this assay (Q8TDX7 whole entry, looked up): as the sequence (Q8TDX7 whole entry, looked up) above

[32] = Toxicity in mouse BMDM cells assessed as induction of cell death up to 40 uM incubated for 24 hrs by MTS assay; assay type: cell-based
Mus musculus [33] = experiment: Inhibition of serum IL-1beta production in NEK7 knockdown C57BL/6 mouse model at 5 mg/kg, ip dosed three times every 12 hrs followed by LPS challenge by ELISA; assay type: functional, organism-based
[34] = target: T2, Serine/threonine-protein kinase Nek7; experiment: Binding affinity to NEK7 in PMA-differentiated human THP-1 cells assessed as reduction in Cy3-labeled target proteins at 100 uM incubated for 8 hrs using probe-16 by fluorescent gel imaging analysis; assay type: cell-based
Mus musculus [35] = experiment: Antiinflammatory activity in NEK7 wild type C57BL/6 mouse model assessed as reduction in lesion in kidney in at 5 mg/kg, ip dosed three times every 12 hrs followed by LPS challenge by H and E staining; assay type: functional, organism-based
Mus musculus [36] = experiment: Inhibition of serum IL-1beta production in NEK7 wild type C57BL/6 mouse model at 5 mg/kg, ip dosed three times every 12 hrs followed by LPS challenge by ELISA; assay type: functional, organism-based
Mus musculus [37] = experiment: Antiinflammatory activity in NEK7 wild type C57BL/6 mouse model assessed as reduction in inflammatory infiltration in liver at 5 mg/kg, ip dosed three times every 12 hrs followed by LPS challenge by H and E staining; assay type: functional, organism-based
Mus musculus [38] = experiment: Antiinflammatory activity in NEK7 wild type C57BL/6 mouse model assessed as reduction in lesion in lung in at 5 mg/kg, ip dosed three times every 12 hrs followed by LPS challenge by H and E staining; assay type: functional, organism-based
[39] = target: T2, Serine/threonine-protein kinase Nek7; experiment: Binding affinity to purified recombinant human NEK7 by SPR analysis
Target sequence in this assay (Q8TDX7 whole entry): as the sequence (Q8TDX7 whole entry, looked up) above

BMDM [40] = experiment: Inhibition of LPS + nigericin-induced pro-IL-1beta expression in mouse BMDM at 2.5 to 20 uM pre-treatment for 4 hrs before LPS + nigericin by immunoblot analysis; assay type: functional, tissue-based; settings: dose 2.5-20 µM
THP-1 [41] = experiment: Inhibition of LPS + nigericin-induced ASC-pyroptosome formation in human THP-1 cells at 5 to 10 uM uM pre-treatment for 4 hrs before LPS + nigericin addition by immunofluorescence analysis; assay type: functional, cell-based; settings: dose 5-10 µM

Chain of 28S rRNA (cytosine-C(5))-methyltransferase (Homo sapiens) (Q96P11 whole entry): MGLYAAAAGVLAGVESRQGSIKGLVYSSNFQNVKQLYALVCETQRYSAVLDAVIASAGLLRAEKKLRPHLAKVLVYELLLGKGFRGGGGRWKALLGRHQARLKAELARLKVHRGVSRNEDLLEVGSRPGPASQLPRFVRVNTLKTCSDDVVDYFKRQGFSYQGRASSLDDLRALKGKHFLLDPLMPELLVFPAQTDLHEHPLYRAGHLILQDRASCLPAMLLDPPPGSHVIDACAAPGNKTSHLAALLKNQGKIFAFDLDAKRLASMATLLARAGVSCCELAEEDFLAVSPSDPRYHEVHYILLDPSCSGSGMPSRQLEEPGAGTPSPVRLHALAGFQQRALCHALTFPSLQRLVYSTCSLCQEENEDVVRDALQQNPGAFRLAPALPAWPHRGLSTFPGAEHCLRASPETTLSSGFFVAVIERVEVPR
Chain of Nicotinamide/nicotinic acid mononucleotide adenylyltransferase 1 (Homo sapiens) (Q9HAN9 whole entry): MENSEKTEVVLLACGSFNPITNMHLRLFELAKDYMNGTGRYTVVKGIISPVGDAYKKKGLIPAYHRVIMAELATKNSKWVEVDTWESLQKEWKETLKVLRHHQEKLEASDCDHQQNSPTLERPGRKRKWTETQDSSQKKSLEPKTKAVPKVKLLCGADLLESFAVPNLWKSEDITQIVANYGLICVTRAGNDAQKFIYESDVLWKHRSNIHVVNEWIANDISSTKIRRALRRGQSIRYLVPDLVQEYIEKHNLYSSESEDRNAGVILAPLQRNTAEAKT
Chain of DIMT1 dimethyladenosine transferase 1 (Homo sapiens) (Q9UNQ2 whole entry, looked up): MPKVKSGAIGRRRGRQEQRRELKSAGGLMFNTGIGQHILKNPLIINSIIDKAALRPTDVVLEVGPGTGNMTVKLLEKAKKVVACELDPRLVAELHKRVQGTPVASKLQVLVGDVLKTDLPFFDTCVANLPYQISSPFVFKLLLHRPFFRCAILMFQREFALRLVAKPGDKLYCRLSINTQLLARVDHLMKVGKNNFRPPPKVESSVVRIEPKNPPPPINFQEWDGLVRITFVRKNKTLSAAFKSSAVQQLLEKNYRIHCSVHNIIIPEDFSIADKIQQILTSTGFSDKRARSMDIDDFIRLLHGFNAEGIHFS

SMILES: COc1c(OCCCCCNC(=O)CCCC[C@@H]2SC[C@@H]3NC(=O)N[C@@H]32)ccc2cc3[n+](cc12)CCc1cc2c(cc1-3)OCO2
inhibition at 20 µM [1]: 73%

SMILES: COc1c(OCCCNC(=O)CCCC[C@@H]2SC[C@@H]3NC(=O)N[C@@H]32)ccc2cc3[n+](cc12)CCc1cc2c(cc1-3)OCO2
inhibition at 20 µM [1]: 38%

Activity [2]: inactive
Activity [3]: inactive
Activity [4]: inactive
Activity [5]: inactive
Activity [6]: inactive
Activity [7]: inactive
SMILES: COc1cc2c(cc1OC)-c1cc3ccc(OC)c(OCCOCCOCCNC(=O)CCCC[C@@H]4SC[C@@H]5NC(=O)N[C@@H]54)c3c[n+]1CC2
inhibition at 20 µM [1]: -78%

SMILES: COc1cc2c(cc1OCCCCCNC(=O)CCCC[C@@H]1SC[C@@H]3NC(=O)N[C@@H]31)CC[n+]1cc3c(OC)c(OC)ccc3cc1-2
inhibition at 20 µM [1]: 70%

Activity [8]: Active
Activity [9]: inactive
Activity [2]: Active
Activity [3]: Active
Activity [4]: Active
Activity [5]: Active
Activity [6]: Active
Activity [7]: Active
Activity [10]: Dose-dependent effect
Activity [11]: Active
SMILES: COc1c(OCCOCCOCCNC(=O)CCCC[C@@H]2SC[C@@H]3NC(=O)N[C@@H]32)ccc2cc3[n+](cc12)CCc1cc2c(cc1-3)OCO2
inhibition at 20 µM [1]: 83%

SMILES: COc1ccc2cc3[n+](cc2c1OCCOCCOCCNC(=O)CCCC[C@@H]1SC[C@@H]2NC(=O)N[C@@H]21)CCc1cc2c(cc1-3)OCO2
inhibition at 20 µM [1]: 16%

SMILES: COc1cc2c(cc1OCCOCCOCCNC(=O)CCCC[C@@H]1SC[C@@H]3NC(=O)N[C@@H]31)CC[n+]1cc3c(OC)c(OC)ccc3cc1-2
inhibition at 20 µM [1]: -79%

SMILES: COc1cc2c(cc1OC)-c1cc3ccc(OC)c(OCCOCCNC(=O)CCCC[C@@H]4SC[C@@H]5NC(=O)N[C@@H]54)c3c[n+]1CC2
inhibition at 20 µM [1]: 65%

SMILES: COc1cc2c(cc1OC)-c1cc3ccc(OC)c(OCCCNC(=O)CCCC[C@@H]4SC[C@@H]5NC(=O)N[C@@H]54)c3c[n+]1CC2
inhibition at 20 µM [1]: 80%

IC50 [21]: 5.1 µM
IC50 [24]: 4.2 µM
inhibition (BMDM [25]): Active
Activity [31]: Active
Activity [34]: Active
Kd [39]: 15.6 µM
SMILES: COc1ccc2cc3[n+](cc2c1OC)CCc1cc2c(cc1-3)OCO2.[Cl-] [BERBERINE CHLORIDE]
inhibition (BMDM [12]): Active
inhibition (BMDM [13]): inactive
Activity [14]: Non-Toxic
inhibition (THP-1 [15]): inactive
inhibition (THP-1 [16]): Dose-dependent effect
Activity (Mus musculus [17]): Active
inhibition (HEK293 [18]): Dose-dependent effect
inhibition (THP-1 [19]): Active
Activity (Mus musculus [20]): Active
Activity [22]: Non-Toxic
inhibition (HEK293 [23]): Active
inhibition (THP-1 [26]): Active
inhibition (HEK293 [27]): inactive
inhibition (THP-1 [28]): inactive
Activity [29]: Non-Toxic
inhibition (THP-1 [30]): inactive
Activity [32]: Non-Toxic
Activity (Mus musculus [33]): inactive
Activity (Mus musculus [35]): Active
Activity (Mus musculus [36]): Active
Activity (Mus musculus [37]): Active
Activity (Mus musculus [38]): Active
inhibition (BMDM [40]): inactive
inhibition (THP-1 [41]): Active
inhibition at 20 µM [1]: 72%
